Assay results taken from patent US12655130B2 (ASSEMBLY BIOSCIENCES, INC., priority 2020, dated 2026).
pEC50: −log10 of the molar value.

Tested on: HBV viral load (viral production from HepAD38 cells)
Assay: Activity of test compounds on viral production from HepAD38 cells (viral load by qPCR of HBV core sequence)
Format: cell-based
Conditions: Hepatitis B virus, HePAD38, 120 h, viral load lowering, 5 days, qPCR of supernatant, read-out: VL HepAD38 EC50 range
How it was run: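 HepAD38 cells seeded at 50,000/well in tetracycline-free medium with 2% FBS, treated 5 days at 37 °C with compounds from 10 μM top concentration. Supernatant HBV DNA quantified by TaqMan qPCR of core sequence against HBV DNA standards, relative to DMSO wells; viability by CellTiter-Glo; EC50/CC50 by four-parameter logistic fit.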

Row | SMILES | pEC50
1 | CC(C)n1nc([N+](=O)[O-])cc1C1(O)CC2CC(c3ncn(C)c3C(=O)Nc3ccc(F)c(Cl)c3)CC2C1 (stereo not drawn) [Example 164, N-(3-Chloro-4-fluorophenyl)-4-(5-hydroxy-5-(1-isopropyl-3-nitro-1H-pyrazol-5-yl)octahydropentalen-2-yl)-1-methyl-1H-imidazole-5-carboxamide] | > 8.00
2 | CC(C)Cn1nc([N+](=O)[O-])cc1C1(O)CC2CC(c3ncn(C)c3C(=O)Nc3ccc(F)c(Cl)c3)CC2C1 (stereo not drawn) [Example 165, N-(3-Chloro-4-fluorophenyl)-4-(5-hydroxy-5-(1-isobutyl-3-nitro-1H-pyrazol-5-yl)octahydropentalen-2-yl)-1-methyl-1H-imidazole-5-carboxamide] | > 8.00
3 | CC(=O)Nc1cc(C2(O)CC3CC(c4ncn(C)c4C(=O)Nc4ccc(F)c(Cl)c4)CC3C2)n(C(C)C)n1 (stereo not drawn) [Example 166, 4-(5-(3-Acetamido-1-isopropyl-1H-pyrazol-5-yl)-5-hydroxyoctahydropentalen-2-yl)-N-(3-chloro-4-fluorophenyl)-1-methyl-1H-imidazole-5-carboxamide] | > 8.00
4 | CCn1nc(N)c(Cl)c1C1(O)CC2CC(c3ncn(C)c3C(=O)Nc3ccc(F)c(Cl)c3)CC2C1 (stereo not drawn) [Example 168, 4-(5-(3-Amino-4-chloro-1-ethyl-1H-pyrazol-5-yl)-5-hydroxyoctahydropentalen-2-yl)-N-(3-chloro-4-fluorophenyl)-1-methyl-1H-imidazole-5-carboxamide] | 7.30 to 8.00
5 | Cn1cnc(C2CC3CC(O)(c4n[nH]cc4C(F)F)CC3C2)c1C(=O)Nc1ccc(F)c(Cl)c1 (stereo not drawn) [Example 169, N-(3-Chloro-4-fluorophenyl)-4-(5-(4-(difluoromethyl)-1H-pyrazol-3-yl)-5-hydroxyoctahydropentalen-2-yl)-1-methyl-1H-imidazole-5-carboxamide] | > 8.00
6 | Cn1cnc(C2CC3CC(O)(c4c[nH]nc4C(F)F)CC3C2)c1C(=O)Nc1ccc(F)c(Cl)c1 (stereo not drawn) [Example 170, N-(3-Chloro-4-fluorophenyl)-4-(5-(3-(difluoromethyl)-1H-pyrazol-4-yl)-5-hydroxyoctahydropentalen-2-yl)-1-methyl-1H-imidazole-5-carboxamide] | > 8.00
7 | Cc1cc(NC(=O)c2c(C3CC4CC(O)(c5cn(C)nc5C(F)(F)F)CC4C3)ncn2C)ccc1F (stereo not drawn) [Example 171, N-(4-Fluoro-3-methylphenyl)-4-(5-hydroxy-5-(1-methyl-3-(trifluoromethyl)-1H-pyrazol-4-yl)octahydropentalen-2-yl)-1-methyl-1H-imidazole-5-carboxamide] | > 8.00
8 | CC(C)Cn1nc(N)c(Cl)c1C1(O)CC2CC(c3ncn(C)c3C(=O)Nc3ccc(F)c(Cl)c3)CC2C1 (stereo not drawn) [Example 172, 4-(5-(3-Amino-4-chloro-1-isobutyl-1H-pyrazol-5-yl)-5-hydroxyoctahydropentalen-2-yl)-N-(3-Chloro-4-fluorophenyl)-1-methyl-1H-imidazole-5-carboxamide] | > 8.00
9 | CCn1nc(C(F)(F)F)cc1C1(O)CC2CC(c3ncn(C)c3C(=O)Nc3ccc(F)c(Cl)c3)CC2C1 (stereo not drawn) [Example 173, N-(3-Chloro-4-fluorophenyl)-4-(5-(1-ethyl-3-(trifluoromethyl)-1H-pyrazol-5-yl)-5-hydroxyoctahydropentalen-2-yl)-1-methyl-1H-imidazole-5-carboxamide] | > 8.00
10 | CCn1ncc(C2(O)CC3CC(c4ncn(C)c4C(=O)Nc4ccc(F)c(Cl)c4)CC3C2)c1C(F)(F)F (stereo not drawn) [Example 174, N-(3-Chloro-4-fluorophenyl)-4-(5-(1-ethyl-5-(trifluoromethyl)-1H-pyrazol-4-yl)-5-hydroxyoctahydropentalen-2-yl)-1-methyl-1H-imidazole-5-carboxamide] | > 8.00
11 | Cn1cc(C2(O)CC3CC(c4ncn(C)c4C(=O)Nc4ccc(F)c(Cl)c4)CC3C2)c(F)n1 (stereo not drawn) [Example 175, N-(3-Chloro-4-fluorophenyl)-4-(5-(3-fluoro-1-methyl-1H-pyrazol-4-yl)-5-hydroxyoctahydropentalen-2-yl)-1-methyl-1H-imidazole-5-carboxamide] | > 8.00
12 | Cn1cnc(C2CC3CC(O)(c4cc(C(N)=O)nn4C)CC3C2)c1C(=O)Nc1ccc(F)c(Cl)c1 (stereo not drawn) [Example 176, 5-(5-(5-((3-Chloro-4-fluorophenyl)carbamoyl)-1-methyl-1H-imidazol-4-yl)-2-hydroxyoctahydropentalen-2-yl)-1-methyl-1H-pyrazole-3-carboxamide] | > 8.00
13 | CCn1nc(C(F)F)cc1C1(O)CC2CC(c3ncn(C)c3C(=O)Nc3ccc(F)c(F)c3)CC2C1 (stereo not drawn) [Example 177, 4-(5-(3-(Difluoromethyl)-1-ethyl-1H-pyrazol-5-yl)-5-hydroxyoctahydropentalen-2-yl)-N-(3,4-difluorophenyl)-1-methyl-1H-imidazole-5-carboxamide] | > 8.00
14 | Cn1cc(C2(O)CC3CC(c4ncn(C)c4C(=O)Nc4ccc(F)c(Cl)c4)CC3C2)c(C(N)=O)n1 (stereo not drawn) [Example 178, 4-(5-(5-((3-Chloro-4-fluorophenyl)carbamoyl)-1-methyl-1H-imidazol-4-yl)-2-hydroxyoctahydropentalen-2-yl)-1-methyl-1H-pyrazole-3-carboxamide] | > 8.00
15 | Cn1cnc(C2CC3CC(O)(c4cc(C(F)(F)F)n[nH]4)CC3C2)c1C(=O)Nc1ccc(F)c(Cl)c1 (stereo not drawn) [Example 179, N-(3-Chloro-4-fluorophenyl)-4-(5-hydroxy-5-(3-(trifluoromethyl)-1H-pyrazol-5-yl)octahydropentalen-2-yl)-1-methyl-1H-imidazole-5-carboxamide] | > 8.00
16 | Cn1cc(C2(O)CC3CC(c4ncn(C)c4C(=O)Nc4ccc(F)c(Cl)c4)CC3C2)c(C#N)n1 (stereo not drawn) [Example 180, N-(3-Chloro-4-fluorophenyl)-4-(5-(3-cyano-1-methyl-1H-pyrazol-4-yl)-5-hydroxyoctahydropentalen-2-yl)-1-methyl-1H-imidazole-5-carboxamide] | > 8.00
17 | Cn1cnc(C2CC3CC(O)(c4c(Br)c(C#N)nn4C)CC3C2)c1C(=O)Nc1ccc(F)c(Cl)c1 (stereo not drawn) [Example 181, 4-(5-(4-Bromo-3-cyano-1-methyl-1H-pyrazol-5-yl)-5-hydroxyoctahydropentalen-2-yl)-N-(3-chloro-4-fluorophenyl)-1-methyl-1H-imidazole-5-carboxamide] | > 8.00
18 | Cn1cc(C2(O)CC3CC(c4ncn(C)c4C(=O)Nc4ccc(F)c(Cl)c4)CC3C2)c(Br)n1 (stereo not drawn) [Example 182, 4-(5-(3-Bromo-1-methyl-1H-pyrazol-4-yl)-5-hydroxyoctahydropentalen-2-yl)-N-(3-chloro-4-fluorophenyl)-1-methyl-1H-imidazole-5-carboxamide] | > 8.00
19 | CC(=O)c1nn(C)cc1C1(O)CC2CC(c3ncn(C)c3C(=O)Nc3ccc(F)c(Cl)c3)CC2C1 (stereo not drawn) [Example 183, 4-(5-(3-Acetyl-1-methyl-1H-pyrazol-4-yl)-5-hydroxyoctahydropentalen-2-yl)-N-(3-chloro-4-fluorophenyl)-1-methyl-1H-imidazole-5-carboxamide] | 7.30 to 8.00
20 | CC(N)c1nn(C)cc1C1(O)CC2CC(c3ncn(C)c3C(=O)Nc3ccc(F)c(Cl)c3)CC2C1 (stereo not drawn) [Example 184, 4-(5-(3-(1-Aminoethyl)-1-methyl-1H-pyrazol-4-yl)-5-hydroxyoctahydropentalen-2-yl)-N-(3-chloro-4-fluorophenyl)-1-methyl-1H-imidazole-5-carboxamide] | > 8.00
21 | CC(=O)NC(C)c1nn(C)cc1C1(O)CC2CC(c3ncn(C)c3C(=O)Nc3ccc(F)c(Cl)c3)CC2C1 (stereo not drawn) [Example 185, 4-(5-(3-(1-Acetamidoethyl)-1-methyl-1H-pyrazol-4-yl)-5-hydroxyoctahydropentalen-2-yl)-N-(3-chloro-4-fluorophenyl)-1-methyl-1H-imidazole-5-carboxamide] | > 8.00
22 | CC(O)c1nn(C)cc1C1(O)CC2CC(c3ncn(C)c3C(=O)Nc3ccc(F)c(Cl)c3)CC2C1 (stereo not drawn) [Example 186, N-(3-Chloro-4-fluorophenyl)-4-(5-hydroxy-5-(3-(1-hydroxyethyl)-1-methyl-1H-pyrazol-4-yl)octahydropentalen-2-yl)-1-methyl-1H-imidazole-5-carboxamide] | > 8.00
23 | Cn1cc(C2(O)CC3CC(c4ncn(C)c4C(=O)Nc4ccc(F)c(Cl)c4)CC3C2)c(C(C)(C)O)n1 (stereo not drawn) [Example 187, N-(3-Chloro-4-fluorophenyl)-4-(5-hydroxy-5-(3-(2-hydroxypropan-2-yl)-1-methyl-1H-pyrazol-4-yl)octahydropentalen-2-yl)-1-methyl-1H-imidazole-5-carboxamide] | > 8.00
24 | Cn1cc(C2(O)CC3CC(c4ncn(C)c4C(=O)Nc4ccc(F)c(Cl)c4)CC3C2)c(C(O)CO)n1 (stereo not drawn) [Example 190, N-(3-Chloro-4-fluorophenyl)-4-(5-(3-(1,2-dihydroxyethyl)-1-methyl-1H-pyrazol-4-yl)-5-hydroxyoctahydropentalen-2-yl)-1-methyl-1H-imidazole-5-carboxamide] | > 8.00
25 | Cn1cc(C2(O)CC3CC(c4ncn(C)c4C(=O)Nc4ccc(F)c(Cl)c4)CC3C2)c(C(O)C(F)(F)F)n1 (stereo not drawn) [Example 191, N-(3-Chloro-4-fluorophenyl)-4-(5-hydroxy-5-(1-methyl-3-(2,2,2-trifluoro-1-hydroxyethyl)-1H-pyrazol-4-yl)octahydropentalen-2-yl)-1-methyl-1H-imidazole-5-carboxamide] | 6.30 to 7.30
26 | CCn1nc(C(F)F)cc1C1(O)CC2CC(c3ncn(C)c3C(=O)Nc3ccc(F)c(C#N)c3)CC2C1 (stereo not drawn) [Example 192, N-(3-Cyano-4-fluorophenyl)-4-(5-(3-(difluoromethyl)-1-ethyl-1H-pyrazol-5-yl)-5-hydroxyoctahydropentalen-2-yl)-1-methyl-1H-imidazole-5-carboxamide] | > 8.00
27 | Cn1cnc(C2CC3CC(O)(c4c[nH]nc4C(F)(F)F)CC3C2)c1C(=O)Nc1ccc(F)c(C#N)c1 (stereo not drawn) [Example 193, N-(3-Cyano-4-fluorophenyl)-4-(5-hydroxy-5-(3-(trifluoromethyl)-1H-pyrazol-4-yl)octahydropentalen-2-yl)-1-methyl-1H-imidazole-5-carboxamide] | > 8.00
